ChEMBL document CHEMBL1127244, “Alternative strategies towards the identification of chemical lead compounds by rational design” (Bioorg Med Chem Lett, 1994)

Assays:
[1] = target: T1, Cholecystokinin receptor type A (Rattus norvegicus, UniProt P30551); test: Binding affinity towards CCK-A receptor in rat pancreas using [125I]Bolton-Hunter CCK-8 as radioligand; Value ranges from 11-16 uM; type: tissue-based
T1 sequence (P30551 whole entry): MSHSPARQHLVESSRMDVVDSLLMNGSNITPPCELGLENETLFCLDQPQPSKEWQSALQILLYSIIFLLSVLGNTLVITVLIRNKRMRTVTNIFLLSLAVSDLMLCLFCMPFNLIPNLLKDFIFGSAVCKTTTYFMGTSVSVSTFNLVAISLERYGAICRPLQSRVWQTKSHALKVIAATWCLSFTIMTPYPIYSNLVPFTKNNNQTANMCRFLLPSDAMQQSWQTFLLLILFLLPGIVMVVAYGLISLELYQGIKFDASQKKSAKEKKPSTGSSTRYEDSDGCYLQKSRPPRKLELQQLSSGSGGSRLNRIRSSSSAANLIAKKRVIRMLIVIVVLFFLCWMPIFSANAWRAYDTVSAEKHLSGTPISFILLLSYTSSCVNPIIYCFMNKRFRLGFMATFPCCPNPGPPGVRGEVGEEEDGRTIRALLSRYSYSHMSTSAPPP

[2] = target: T2, Gastrin/cholecystokinin type B receptor (Mus musculus, UniProt P56481); test: Binding affinity towards CCK-B receptor in mouse cerebral cortex using [125I]Bolton-Hunter CCK-8 as radioligand; Inactive (>>10 uM); type: tissue-based
T2 sequence (P56481 whole entry): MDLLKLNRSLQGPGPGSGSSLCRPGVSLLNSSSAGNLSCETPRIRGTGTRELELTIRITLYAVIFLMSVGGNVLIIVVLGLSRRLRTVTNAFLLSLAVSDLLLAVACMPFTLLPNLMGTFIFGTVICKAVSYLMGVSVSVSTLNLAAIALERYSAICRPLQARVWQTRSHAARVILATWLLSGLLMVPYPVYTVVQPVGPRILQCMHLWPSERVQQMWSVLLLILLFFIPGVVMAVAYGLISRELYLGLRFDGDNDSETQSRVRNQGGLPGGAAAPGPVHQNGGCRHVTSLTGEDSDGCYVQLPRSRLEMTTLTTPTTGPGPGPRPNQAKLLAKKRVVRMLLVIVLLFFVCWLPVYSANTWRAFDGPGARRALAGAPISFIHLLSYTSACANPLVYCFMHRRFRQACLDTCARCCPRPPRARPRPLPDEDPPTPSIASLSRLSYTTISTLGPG

[3] = target: T3, Neuromedin-K receptor (Cavia porcellus, UniProt P30098); test: Binding affinity towards Tachykinin receptor 3 in guinea pig cerebral cortex using [3H]senktide as radioligand; Inactive (>>10 uM); type: tissue-based
T3 sequence (P30098 whole entry): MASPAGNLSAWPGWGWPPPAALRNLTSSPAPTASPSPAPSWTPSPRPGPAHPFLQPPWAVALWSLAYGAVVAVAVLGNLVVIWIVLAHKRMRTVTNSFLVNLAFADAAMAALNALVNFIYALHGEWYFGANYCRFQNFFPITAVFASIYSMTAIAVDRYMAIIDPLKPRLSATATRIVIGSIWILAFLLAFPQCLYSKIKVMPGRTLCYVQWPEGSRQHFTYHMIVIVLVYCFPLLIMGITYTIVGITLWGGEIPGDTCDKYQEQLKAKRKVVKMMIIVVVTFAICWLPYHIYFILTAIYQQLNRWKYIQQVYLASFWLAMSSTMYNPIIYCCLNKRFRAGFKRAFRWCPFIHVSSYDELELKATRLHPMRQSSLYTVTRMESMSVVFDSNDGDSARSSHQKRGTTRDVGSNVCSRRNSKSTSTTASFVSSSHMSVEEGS

[4] = target: T4, Substance-K receptor (Mesocricetus auratus, UniProt P51144); test: Binding affinity towards Tachykinin receptor 2 in hamster urinary bladder using [125I]-Neurokinin A as radioligand; Inactive (>>10 uM); type: tissue-based
T4 sequence (P51144 whole entry): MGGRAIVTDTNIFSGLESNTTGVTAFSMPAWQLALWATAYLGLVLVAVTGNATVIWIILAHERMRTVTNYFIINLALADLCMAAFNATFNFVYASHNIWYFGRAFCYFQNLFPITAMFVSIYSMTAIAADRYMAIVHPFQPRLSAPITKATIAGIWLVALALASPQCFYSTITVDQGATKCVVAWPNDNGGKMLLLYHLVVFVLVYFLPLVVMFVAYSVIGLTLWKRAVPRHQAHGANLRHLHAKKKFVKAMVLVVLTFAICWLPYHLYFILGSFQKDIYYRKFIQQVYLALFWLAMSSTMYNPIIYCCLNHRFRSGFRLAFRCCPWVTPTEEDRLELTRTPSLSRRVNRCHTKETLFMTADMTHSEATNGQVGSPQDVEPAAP

[5] = target: T5, Substance-P receptor (Cavia porcellus, UniProt P30547); test: Binding affinity towards NK-1 receptor in guinea pig cerebral cortex using [125I]-Bolton-Hunter substance P as radioligand; Value ranges from 7.3-8.8 uM; type: tissue-based
T5 sequence (P30547 whole entry): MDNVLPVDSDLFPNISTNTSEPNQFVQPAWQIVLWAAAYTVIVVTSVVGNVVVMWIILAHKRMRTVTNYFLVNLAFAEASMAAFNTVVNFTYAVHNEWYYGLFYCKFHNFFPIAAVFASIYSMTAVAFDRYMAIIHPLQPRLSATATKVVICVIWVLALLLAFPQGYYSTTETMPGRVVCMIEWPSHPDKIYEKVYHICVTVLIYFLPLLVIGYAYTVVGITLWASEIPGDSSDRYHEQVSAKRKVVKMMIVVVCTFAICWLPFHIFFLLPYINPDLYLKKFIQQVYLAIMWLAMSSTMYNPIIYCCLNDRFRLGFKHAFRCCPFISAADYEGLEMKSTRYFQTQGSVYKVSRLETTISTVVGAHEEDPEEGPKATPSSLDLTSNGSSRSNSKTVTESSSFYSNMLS

[6] = target: T5, Substance-P receptor; test: Binding affinity towards NK-1 receptor in guinea pig cerebral cortex using [125I]Bolton-Hunter substance P as radioligand; Inactive (>>10 uM); type: tissue-based
[7] = target: T4, Substance-K receptor; test: Binding affinity towards Tachykinin receptor 2 in hamster urinary bladder using [125I]neurokinin A as radioligand; Value ranges from 2.6-11 uM
[8] = target: T2, Gastrin/cholecystokinin type B receptor; test: Binding affinity towards CCK-B receptor in mouse cerebral cortex using [125I]Bolton-Hunter CCK-8 as radioligand; Value ranges from 7.8-9.3 uM; type: tissue-based
[9] = target: T1, Cholecystokinin receptor type A; test: Binding affinity towards CCK-A receptor in rat pancreas using [125I]Bolton-Hunter CCK-8 as radioligand; Value ranges from 4.7-7.1 uM; type: tissue-based
[10] = target: T4, Substance-K receptor; test: Binding affinity towards Tachykinin receptor 2 in hamster urinary bladder using [125I]neurokinin A as radioligand; Value ranges from 4.6-9.0 uM
[11] = target: T1, Cholecystokinin receptor type A; test: Binding affinity towards CCK-A receptor in rat pancreas using [125I]Bolton-Hunter CCK-8 as radioligand; Value ranges from 12-20 uM; type: tissue-based
[12] = target: T3, Neuromedin-K receptor; test: Binding affinity towards Tachykinin receptor 3 in guinea pig cerebral cortex using [3H]senktide as radioligand; Value ranges from 5.8-14u M; type: tissue-based
[13] = target: T2, Gastrin/cholecystokinin type B receptor; test: Binding affinity towards CCK-B receptor in mouse cerebral cortex using [125I]Bolton-Hunter CCK-8 as radioligand; Value ranges from 9.8-25 uM; type: tissue-based
[14] = target: T1, Cholecystokinin receptor type A; test: Binding affinity towards CCK-A receptor in rat pancreas using [125I]Bolton-Hunter CCK-8 as radioligand; Value ranges from 3.3-5.4 uM; type: tissue-based
[15] = target: T1, Cholecystokinin receptor type A; test: Binding affinity towards CCK-A receptor in rat pancreas using [125I]Bolton-Hunter CCK-8 as radioligand; Value ranges from 3.5-4.6 uM; type: tissue-based
[16] = target: T1, Cholecystokinin receptor type A; test: Binding affinity towards CCK-A receptor in rat pancreas using [125I]Bolton-Hunter CCK-8 as radioligand; Value ranges from 4.1-6.4 uM; type: tissue-based
[17] = target: T3, Neuromedin-K receptor; test: Binding affinity towards Tachykinin receptor 3 in guinea pig cerebral cortex using [3H]senktide as radioligand; Value ranges from 8.2-9.4 uM; type: tissue-based

| Structure (SMILES) | IC50 [2] | IC50 [3] | IC50 [4] | IC50 [6] | also measured |
| --- | --- | --- | --- | --- | --- |
| O=C1CCN(C(=O)OCc2ccccc2)CC1Cc1ccccc1 (stereo unspecified) | Not Active | Not Active | Not Active |  | IC50 [1]: 13 µM; IC50 [5]: 8.1 µM |
| O=C1CCN(C(=O)CCc2c[nH]c3ccccc23)CC1Cc1ccccc1 (stereo unspecified) |  | Not Active |  | Not Active | IC50 [7]: 6.9 µM |
| CCOP(=O)(OCC)OC1=CCN(Cc2ccccc2)CC1Cc1cn(C(=O)OC(C)(C)C)c2ccccc12 (stereo unspecified) |  | Not Active | Not Active | Not Active | IC50 [8]: 8.5 µM; IC50 [9]: 5.5 µM |
| O=C1CCN(Cc2ccccc2)CC1Cc1c[nH]c2ccccc12 (stereo unspecified) | Not Active |  |  | Not Active | IC50 [10]: 6.8 µM; IC50 [11]: 16 µM; IC50 [12]: 10 µM |
| O=C1[C@H](Cc2c[nH]c3ccccc23)CN(Cc2ccccc2)C[C@@H]1Cc1c[nH]c2ccccc12 |  | Not Active | Not Active | Not Active | IC50 [13]: 15 µM; IC50 [14]: 4.1 µM |
| O=C1C(Cc2c[nH]c3ccccc23)CN(Cc2ccccc2)C[C@@H]1Cc1c[nH]c2ccccc12 (stereo partly specified) | Not Active | Not Active | Not Active | Not Active | IC50 [15]: 4 µM |
| CC(C)(C)OC(=O)n1cc(CC2CN(Cc3ccccc3)CCC2O)c2ccccc21 (stereo unspecified) | Not Active | Not Active | Not Active | Not Active | IC50 [16]: 5.2 µM |
| OC1CCN(Cc2ccccc2)C[C@@H]1Cc1c[nH]c2ccccc12 (stereo partly specified) |  |  | Not Active | Not Active | IC50 [17]: 8.8 µM |
